In ChEMBL document CHEMBL1649482, “Gene Context and DNA rearrangements in the carbapenemase locus of division II strains of Bacteroides fragilis” (2009):
Converted amounts (≈) assume the structure as drawn.

Legend:
Type in all cases: functional
Bacteroides fragilis [1] = assay: Antimicrobial activity against Bacteroides fragilis MN5 after 24 hrs by agar dilution method; conditions: MN5, 24 h
Bacteroides fragilis [2] = assay: Antimicrobial activity against Bacteroides fragilis MN32 imipenemase activity after 24 hrs by agar dilution method; conditions: MN32, 24 h
Bacteroides fragilis [3] = assay: Antimicrobial activity against Bacteroides fragilis MN11 expressing imipenemase activity after 24 hrs by agar dilution method; conditions: MN11, 24 h
Bacteroides fragilis [4] = assay: Antimicrobial activity against Bacteroides fragilis MN35 after 24 hrs by agar dilution method; conditions: MN35, 24 h
Bacteroides fragilis [5] = assay: Antimicrobial activity against Bacteroides fragilis MN36 after 24 hrs by agar dilution method; conditions: MN36, 24 h
Bacteroides fragilis [6] = assay: Antimicrobial activity against Bacteroides fragilis MN41 after 24 hrs by agar dilution method; conditions: MN41, 24 h
Bacteroides fragilis [7] = assay: Antimicrobial activity against Bacteroides fragilis MN4a

C[C@@H](O)[C@H]1C(=O)N2C(C(=O)O)=C(SCCNC=N)C[C@H]12 [IMIPENEM ANHYDROUS]
MIC (Bacteroides fragilis [1]): 0.25 µg/mL (≈ 0.835 µM)
MIC (Bacteroides fragilis [2]): 128 µg/mL (≈ 428 µM)
MIC (Bacteroides fragilis [3]): 256 µg/mL (≈ 855 µM)
MIC (Bacteroides fragilis [4]): 0.25 µg/mL (≈ 0.835 µM)
MIC (Bacteroides fragilis [5]): 0.25 µg/mL (≈ 0.835 µM)
MIC (Bacteroides fragilis [6]): 0.25 µg/mL (≈ 0.835 µM)
MIC (Bacteroides fragilis [7]): 0.5 µg/mL (≈ 1.67 µM)
